From patent publication US20240417764A1, “METHODS FOR THE PRODUCTION OF TRYPTOPHANS, TRYPTAMINES, INTERMEDIATES, SIDE PRODUCTS AND DERIVATIVES” (priority 2021, published 2024)

Tests used:
[1] = target: T1, endogenous Escherichia coli tryptophan synthase beta subunit (TrpB) (Escherichia coli, UniProt P0A879); assay: TrpB substrate flexibility, in vivo conversion of substituted indoles to tryptophans; type: cell-based; details: sampled at 24 h
T1 construct: Yield for production of tryptophan derivatives by native E. coli TrpB from indole derivatives; endogenous in cells; host or cells: E. coli BL21 Star (DE3) carrying pETM6-SDM2x (empty vector for the TrpB-alone study)
Excerpt: (§1) Four previously constructed BL21 Star™ (DE3) cell lines with pETM6-SDM2x plasmid backbones were used, each with endogenous Escherichia coli (E. coli) tryptophan synthase beta subunit (TrpB); (1) no gene insert (empty vector), (2) PsiD gene insert with T7 promoter, (3) PsiD-PsiK gene insert with C4 promoter in operon configuration (pNor, Norbaeocystin Production Strain) (Adams et al., 2022), and (4) PsiD-PsiK-PsiM gene insert with H10 promoter in operon configuration (pSilo16, Psilocybin Production Strain; See WO 2021/086513) (Adams et al., 2019). For the PsiD transcriptional optimization study, each of the nine previously described library members were used, in lieu of the strains above. Overnight cultures were grown in Andrew's Magic Media (AMM) without MOPS, appropriate antibiotics for plasmid retention, and were inoculated from freezer stocks. Experimental cultures were incubated in covered 48-well plates at 37° C. in a shaking incubator. AMM media consistent with above was inoculated at 2% final volume of respective overnight culture and 2 mL aliquoted to each well. Indole derivatives were added to each well, except negative control, at 100 mg/L using 5 uL from a 40 mg/mL stock in EtOH. 4-Nitroindole at 13.3 mg/mL in EtOH was added using 15 uL due to solubility limitations. Cultures were induced at 2 hours using 1 mM ITPG. Cultures were sampled at 24 hours and subjected to LC-MS analysis as described below. Cultures with serine added were identical to those without, except for adding 4.5 g/L of serine prior to inoculation.
Without commercially available standards for many of these compounds absolute quantification of enzymatic products is not possible. Peak areas from one substituted indole could not be compared directly to peak areas from another substituted indole due to significant differences in extinction coefficients. Relative quantification was performed by comparing product UV 280 nm peak areas from HPLC analysis (mAU*min) to that of the corresponding substituted indole. TrpB proficiencies with and without serine were calculated by dividing the tryptophan product peak areas by the total peak areas from the indole and tryptophan peaks. Tryptophan and indole peak areas were determined from duplicate samples with indole and subtraction of any time-correlated peak areas found in the samples without indole addition. Any other indole related peak areas found in indole samples were included in the denominator. Indole related peaks were defined as peaks found in indole samples, but absent from samples without indole addition. Similar calculations were performed for PsiD proficiencies where tryptamine peak areas were divided by the total area of associated tryptamine and tryptophan peaks. Indole utilization was also calculated for PsiD proficiencies where the remaining indole peak areas were divided by the initial peak areas.

P. cubensis PsiD = target: T2, P. cubensis PsiD (Psilocybe cubensis, UniProt P0DPA6, L22F); assay: PsiD substrate flexibility, in vivo decarboxylation of substituted tryptophans to tryptamines; type: cell-based, Escherichia coli; details: in vivo in E. coli expressing PsiD, HPLC/LCMS detection
T2 construct: expressed in transfected cells; host or cells: E. coli BL21 Star (DE3); PsiD insert with the T7 promoter, or promoter/backbone library members, or pNor and pSilo16
Excerpt: as §1, with “Indole derivatives were added to each well, except negative control, at 100 mg/L using 5 uL from a 40 mg/mL stock in EtOH. 4-Nitroindole at 13.3 mg/mL in EtOH was added using 15 uL due to solubility limitations. Cultures were induced at 2 hours using 1 mM ITPG. Cultures were sampled at 24 hours and subjected to LC-MS analysis as described below. Cultures with serine added were identical to those without, except for adding 4.5 g/L of serine prior to inoculation.” left out
Without commercially available standards for many of these compounds absolute quantification of enzymatic products is not possible. […] Relative quantification was performed by comparing product UV 280 nm peak areas from HPLC analysis (mAU*min) to that of the corresponding substituted indole. TrpB proficiencies with and without serine were calculated by dividing the tryptophan product peak areas by the total peak areas from the indole and tryptophan peaks. Tryptophan and indole peak areas were determined from duplicate samples with indole and subtraction of any time-correlated peak areas found in the samples without indole addition. […] Indole utilization was also calculated for PsiD proficiencies where the remaining indole peak areas were divided by the initial peak areas.
PsiD substrate flexibility was evaluated jointly in vivo with TrpB, such that if indoles were not sufficiently processed by TrpB, then PsiD activity could not be evaluated. […]

E. coli BL21 Star (DE3) = assay: Culture growth of E. coli production host supplemented with indole derivatives; type: cell-based, Escherichia coli; details: indole derivative 100 mg/L in 48-well culture, 37 C, compared visually with other indoles
Excerpt: as §1
Other indoles may have slowed cell growth, but the differences were not easily distinguishable visually as OD600 reading were not taken for every sample.

[2] = without supplemental serine, indole 100 mg/L, tryptophan peak area / total indole-related peak areas (UV 280 nm)
[3] = with supplemental serine 4.5 g/L

T2 sequence (P0DPA6 whole entry, stated change not applied): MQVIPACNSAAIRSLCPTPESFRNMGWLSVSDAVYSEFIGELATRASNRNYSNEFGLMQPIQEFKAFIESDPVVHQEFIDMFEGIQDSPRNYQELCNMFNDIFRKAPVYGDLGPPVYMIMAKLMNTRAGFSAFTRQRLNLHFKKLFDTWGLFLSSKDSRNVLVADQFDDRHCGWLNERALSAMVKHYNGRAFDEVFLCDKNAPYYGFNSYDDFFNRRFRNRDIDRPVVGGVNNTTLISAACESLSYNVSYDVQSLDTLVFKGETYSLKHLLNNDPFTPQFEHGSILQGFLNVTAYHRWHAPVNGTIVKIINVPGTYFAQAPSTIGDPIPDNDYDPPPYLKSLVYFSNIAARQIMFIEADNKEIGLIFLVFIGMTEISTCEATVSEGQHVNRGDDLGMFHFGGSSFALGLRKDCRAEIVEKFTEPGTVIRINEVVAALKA
T1 sequence (P0A877 whole entry): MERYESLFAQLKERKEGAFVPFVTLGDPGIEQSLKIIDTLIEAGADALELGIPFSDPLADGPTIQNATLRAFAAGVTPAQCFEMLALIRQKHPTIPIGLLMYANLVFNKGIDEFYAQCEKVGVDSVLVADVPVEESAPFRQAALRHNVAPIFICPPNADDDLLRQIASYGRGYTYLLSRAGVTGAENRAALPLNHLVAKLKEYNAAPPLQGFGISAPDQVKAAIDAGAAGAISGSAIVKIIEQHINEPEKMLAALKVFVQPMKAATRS
T1 sequence (P0A879 2-397): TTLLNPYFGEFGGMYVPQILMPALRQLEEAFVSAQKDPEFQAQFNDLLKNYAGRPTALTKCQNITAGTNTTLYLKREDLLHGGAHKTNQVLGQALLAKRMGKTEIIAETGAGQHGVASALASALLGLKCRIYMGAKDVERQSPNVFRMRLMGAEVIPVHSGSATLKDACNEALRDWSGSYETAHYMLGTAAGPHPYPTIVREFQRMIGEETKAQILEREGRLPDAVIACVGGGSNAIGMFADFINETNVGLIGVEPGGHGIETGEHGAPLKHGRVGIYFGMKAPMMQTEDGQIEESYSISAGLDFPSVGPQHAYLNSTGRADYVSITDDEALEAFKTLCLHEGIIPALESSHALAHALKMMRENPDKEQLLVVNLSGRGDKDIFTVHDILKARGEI

SMILES	TrpB proficiency (class) [1, 2]	TrpB proficiency [1, 3] [%]	culture growth retardation (toxicity effects of the indole derivatives) (E. coli BL21 Star (DE3))	further results
Clc1cc2ccccc2[nH]1 [2-chloroindole]	moderate (35-65%) or low proficiency (5-35%)			
N[C@@H](Cc1c(Cl)[nH]c2ccccc12)C(=O)O [2-chlorotryptophan]				PsiD conversion to tryptamine product (P. cubensis PsiD): neither tryptamine product was observed
Cc1cc2ccccc2[nH]1 [2-methylindole]		100		PsiD conversion to tryptamine product (P. cubensis PsiD): no tryptamine product could be detected
Cc1[nH]c2ccccc2c1C[C@H](N)C(=O)O [2-methyltryptophan]				PsiD conversion to tryptamine product (P. cubensis PsiD): neither tryptamine product was observed
Nc1cccc2[nH]ccc12 [4-aminoindole]	moderate (35-65%) or low proficiency (5-35%)	23	significant culture growth retardation	
Brc1cccc2[nH]ccc12 [4-bromoindole]	moderate (35-65%) or low proficiency (5-35%)		significant culture growth retardation	
Clc1cccc2[nH]ccc12 [4-chloroindole]	moderate (35-65%) or low proficiency (5-35%)		significant culture growth retardation	
Fc1cccc2[nH]ccc12 [4-fluoroindole]	moderate (35-65%) or low proficiency (5-35%)	100	significant culture growth retardation	TrpB proficiency [1, 2]: 27%
Oc1cccc2[nH]ccc12 [4-hydroxyindole]		100		
Ic1cccc2[nH]ccc12 [4-iodoindole]	moderate (35-65%) or low proficiency (5-35%)		significant culture growth retardation	
COc1cccc2[nH]ccc12 [4-methoxyindole]	moderate (35-65%) or low proficiency (5-35%)			
Cc1cccc2[nH]ccc12 [4-methylindole]	moderate (35-65%) or low proficiency (5-35%)	93	significant culture growth retardation	TrpB proficiency [1, 2]: 22%
Brc1ccc2[nH]ccc2c1 [5-bromoindole]			significant culture growth retardation	
Clc1ccc2[nH]ccc2c1 [5-chloroindole]			significant culture growth retardation	
Fc1ccc2[nH]ccc2c1 [5-fluoroindole]	moderate (35-65%) or low proficiency (5-35%)		significant culture growth retardation	
Oc1ccc2[nH]ccc2c1 [5-hydroxyindole]	moderate (35-65%) or low proficiency (5-35%)			
Ic1ccc2[nH]ccc2c1 [5-iodoindole]			significant culture growth retardation	

SMILES	TrpB proficiency (class) [1, 2]	TrpB proficiency [1, 3] [%]	culture growth retardation (toxicity effects of the indole derivatives) (E. coli BL21 Star (DE3))	further results
COc1ccc2[nH]ccc2c1 [5-methoxyindole]	moderate (35-65%) or low proficiency (5-35%)			
Cc1ccc2[nH]ccc2c1 [5-methylindole]	moderate (35-65%) or low proficiency (5-35%)			
Brc1ccc2cc[nH]c2c1 [6-bromoindole]	moderate (35-65%) or low proficiency (5-35%)		significant culture growth retardation	
Clc1ccc2cc[nH]c2c1 [6-chloroindole]	moderate (35-65%) or low proficiency (5-35%)		significant culture growth retardation	
Fc1ccc2cc[nH]c2c1 [6-fluoroindole]	moderate (35-65%) or low proficiency (5-35%)		significant culture growth retardation	
Oc1ccc2cc[nH]c2c1 [6-hydroxyindole]		3		
Ic1ccc2cc[nH]c2c1 [6-iodoindole]	moderate (35-65%) or low proficiency (5-35%)		significant culture growth retardation	
COc1ccc2cc[nH]c2c1 [6-methoxyindole]	moderate (35-65%) or low proficiency (5-35%)			
O=[N+]([O-])c1ccc2cc[nH]c2c1 [6-nitroindole]			significant culture growth retardation	
Nc1cccc2cc[nH]c12 [7-aminoindole]	moderate (35-65%) or low proficiency (5-35%)			
Brc1cccc2cc[nH]c12 [7-bromoindole]		100		
N#Cc1cccc2cc[nH]c12 [7-cyanoindole]	moderate (35-65%) or low proficiency (5-35%)			
Fc1cccc2cc[nH]c12 [7-fluoroindole]	moderate (35-65%) or low proficiency (5-35%)	95	significant culture growth retardation	TrpB proficiency [1, 2]: 45%
Oc1cccc2cc[nH]c12 [7-hydroxyindole]		100		
Ic1cccc2cc[nH]c12 [7-iodoindole]		100		
COc1cccc2cc[nH]c12 [7-methoxyindole]		100		
Cc1cccc2cc[nH]c12 [7-methylindole]		100		
